In the assay the test system is CTLL-2 cells. Description: CTLL-2 cell expansion / proliferation (binding) assay. It is filed as cell-based. The protocol:
T cell expansion test of IL-2 variants in CTLL-2 cells. CTLL-2 cell expansion assay was performed using transiently expressed F42 variant supernatant from transfected engineered CHO cells. […] Cell proliferation was performed using Cell Titer Glo (Promega, WI). Luminescent signal was read on TECAN genios pro. […] A general procedure for studying the IL-2 variants of the present invention is shown in the following:
Utilizing a CTLL-2 cell expansion assay as disclosed in the Examples, 20 different IL-2 variants including 16 originally selected sites (wild type included) and 4 additional sites (K32, K48, K49, K76) known in the art were screened (Charych, D., et al., PLoS One, 12(7): p. e0179431, 2017). […] Identified variants were further analyzed for their binding capabilities after PEGylation.

The source of these data is US20230226152A1, “INTERLEUKIN-2 POLYPEPTIDE CONJUGATES AND METHODS OF USE THEREOF” (Ambrx, Inc., priority 2020, published 2023).

On to “F42: IL-2 with unnatural amino acid (pAF) at F42, SEQ ID NO: 9”, for which, for the setting “transiently expressed variant supernatant from engineered CHO cells, Cell Titer Glo”, the EC50 result is “around 0.24 ng/mL”. Further, for the setting “wild type IL-2 = 100% proliferation”, the “function retained compared to wild type control” value is 95%.
